Data as given in the supplement of paper PMC10307832.

How the values were obtained:
Experiment in all cases: relative viability (nuclei count vs DMSO), 5 days (fraction); higher = more cells survive
[1] = compound: C[C@]1(O)C[C@@H](c2nc(-c3ccc4ccc(-c5ccccc5)nc4c3)c3c(N)nccn32)C1 [Linsitinib] + COc1cc2c(Oc3ccc(NC(=O)C4(C(=O)Nc5ccc(F)cc5)CC4)cc3F)ccnc2cc1OCCCN1CCOCC1 [Foretinib] (partner 0.25 µM)
How it was run: (§1)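 Dosing by pin tool came one day after lung cancer cell lines were seeded in 1536-well plates, using either one drug or a fixed anchor-drug dose plus five library-drug doses (not always all listed) in √10 steps. After 5 days, nuclei were counted on 4× images. Relative viability is treated-well nuclei count divided by vehicle-well nuclei count, and values are medians of duplicate plates.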

[2] = compound: C[C@]1(O)C[C@@H](c2nc(-c3ccc4ccc(-c5ccccc5)nc4c3)c3c(N)nccn32)C1 [Linsitinib] + NC(=O)Nc1cc(-c2cccc(F)c2)sc1C(=O)N[C@H]1CCCNC1 [AZD7762] (partner 0.2 µM)
How it was run: as §1

[3] = compound: Cc1ccc(C(=O)N(CCCN)[C@@H](c2nc3cc(Cl)ccc3c(=O)n2Cc2ccccc2)C(C)C)cc1 [Ispinesib] + Cc1nc(Nc2ncc(C(=O)Nc3c(C)cccc3Cl)s2)cc(N2CCN(CCO)CC2)n1 [Dasatinib] (partner 0.075 µM)
How it was run: as §1

[4] = compound: Cc1ccc(C(=O)N(CCCN)[C@@H](c2nc3cc(Cl)ccc3c(=O)n2Cc2ccccc2)C(C)C)cc1 [Ispinesib] + NC(=O)Nc1cc(-c2cccc(F)c2)sc1C(=O)N[C@H]1CCCNC1 [AZD7762] (partner 0.2 µM)
How it was run: as §1

Row | Cell Line | relative viability ([1]; first compound 0.01 µM) | relative viability ([1]; first compound 0.03162 µM) | relative viability ([1]; first compound 0.1 µM) | relative viability ([1]; first compound 0.3162 µM) | relative viability ([1]; first compound 1 µM) | relative viability ([2]; first compound 0.01 µM) | relative viability ([2]; first compound 0.03162 µM) | relative viability ([2]; first compound 0.1 µM) | relative viability ([2]; first compound 0.3162 µM) | relative viability ([2]; first compound 1 µM) | relative viability ([3]; first compound 0.001 µM) | relative viability ([3]; first compound 0.003162 µM) | relative viability ([3]; first compound 0.01 µM) | relative viability ([3]; first compound 0.03162 µM) | relative viability ([3]; first compound 0.1 µM) | relative viability ([4]; first compound 0.001 µM) | relative viability ([4]; first compound 0.003162 µM) | relative viability ([4]; first compound 0.01 µM) | relative viability ([4]; first compound 0.03162 µM) | relative viability ([4]; first compound 0.1 µM)
1 | NCI-H1993 | 0.753 | 0.724 | 0.653 | 0.759 | 0.657 | 0.734 | 0.773 | 0.623 | 0.509 | 0.513 | 0.617 | 0.373 | 0.634 | 0.548 | 0.584 | 0.918 | 0.821 | 0.636 | 0.646 | 0.508
2 | NCI-H460 | 1.02 | 1.05 | 0.969 | 0.935 | 1.02 | 0.566 | 0.614 | 0.698 |  | 0.398 | 0.557 | 0.619 | 0.573 | 0.323 | 0.0386 | 0.711 | 0.757 | 1.01 | 0.632 | 0.0769
3 | NCI-H1651 | 0.7 | 0.81 | 0.753 | 0.683 | 0.734 | 0.221 | 0.467 | 0.429 | 0.525 | 0.447 | 0.655 | 0.497 | 0.479 | 0.334 | 0.136 | 0.531 | 0.561 | 0.524 | 0.441 | 0.408
4 | NCI-H1975 | 0.848 | 0.869 | 0.87 | 0.87 | 0.781 | 0.697 | 0.673 | 0.685 | 0.685 | 0.562 | 0.443 | 0.43 | 0.425 | 0.158 | 0.114 | 0.678 | 0.829 | 0.781 | 0.617 | 0.279
5 | NCI-H2126 | 1.11 | 1.28 | 1.05 | 1.06 | 1.06 | 0.972 | 0.997 | 1.05 | 0.871 | 0.887 | 0.671 | 0.658 | 0.768 | 0.566 | 0.413 | 1.04 | 1.08 | 1.2 | 1.03 | 0.591
6 | 201T | 1.19 | 1.15 | 1.07 | 1.2 | 0.82 | 0.554 | 0.59 | 0.675 | 0.509 | 0.612 | 0.538 | 0.599 | 0.735 | 0.56 | 0.307 | 0.662 | 0.521 | 0.643 | 0.65 | 0.309
7 | HCC-78 | 0.545 | 0.567 | 0.471 | 0.44 | 0.39 |  | 0.56 | 0.415 | 0.666 | 0.472 | 0.388 | 0.542 | 0.464 | 0.348 | 0.267 | 0.691 | 0.592 | 0.532 | 0.526 | 0.422
8 | NCI-H358 | 0.62 | 0.701 | 0.607 | 0.538 | 0.365 | 0.668 | 0.473 | 0.563 | 0.366 | 0.321 | 0.162 | 0.144 | 0.163 | 0.131 | 0.0677 | 0.654 | 0.462 | 0.514 | 0.433 | 0.253
